Converted amounts (≈) assume the structure as drawn. Where a name gives a salt, the structure may show the parent alone.
Legend:
[1] = test system: M catarrhalis and H. influenzae; assay: MIC against some strains of gram negative pathogens; assay type: cell-based; conditions: Haemophilus influenzae
Method: (§1) Compounds of the present invention were assayed for antibacterial activity against a range of pathogenic organisms (strains of S aureus, S pneumoniae, E faecalis, H influenzae and M catarrhalis) in a standard MIC assay modified by the inclusion of cyclodextrin, to assist with solubility.

[2] = molecular target: T1, recombinant H. influenzae MRS (Haemophilus influenzae, UniProt P43828); assay: Enzyme Inhibition (H. influenzae MRS) aminoacylation assay; assay type: biochemical; conditions: read-out: IC50 against H. influenzae MRS
T1 construct: made in house
Method: 2. Enzyme Inhibition (H. influenzae MRS)—aminoacylation assay
Compounds of the present invention may be assayed for their ability to inhibit the enzyme methionyl tRNA synthetase (MRS), using recombinant H. influenzae MRS(R. D. Fleischmann et al., Science, 269, 496–512, 1995), as follows:
The reaction is started by adding 20 μl appropriately diluted pure enzyme (pre-incubated with inhibitor) to 25 μl reaction mix for 10 min at room temperature. The reaction is terminated by the addition of 150 μl 167 mM sodium citrate, pH 2.15 containing phosphodiesterase (PDE) SPA beads (0.833 mg/ml). The binding of the radiolabelled product to the bead brings the isotope into close enough proximity to allow radiation from the tritium to excite the scintillant within the bead. Any unbound radiolabel is not close enough to the scintillant to allow this energy transfer, so no signal is generated. Following termination of the reaction, plates are spun at 2500 rpm for 5 min in a Mistral 3000E plate centrifuge (or alternatively allowed to stand for 1 hour). The assay is conducted in 96-well Optiplates (Packard). Plates are counted on a TopCount. (Packard 96 well counter).
Mixed E. coli MRE 600 tRNA and ATP were purchased from Boehringer-Mannheim, L-[methyl-^3H]methionine and phosphodiesterase scintillation proximity (SPA) beads from Amersham Pharmacia Biotech and other reagents from Sigma.

S. aureus = assay: MIC S. aureus (standard MIC assay modified by inclusion of cyclodextrin); assay type: cell-based; conditions: Staphylococcus aureus
Method: as §1

S. pneumo = assay: MIC S. pneumo (standard MIC assay modified by inclusion of cyclodextrin); assay type: cell-based; conditions: Streptococcus pneumoniae
Method: as §1

[3] = test system: S. aureus, S. pneumoniae, and E. faecalis; assay: MIC against some strains of gram positive pathogens; assay type: cell-based
Method: as §1

H. influenzae = assay: MIC H. influenzae (standard MIC assay modified by inclusion of cyclodextrin); assay type: cell-based; conditions: Haemophilus influenzae
Method: as §1

T1 sequence (P43828 whole entry): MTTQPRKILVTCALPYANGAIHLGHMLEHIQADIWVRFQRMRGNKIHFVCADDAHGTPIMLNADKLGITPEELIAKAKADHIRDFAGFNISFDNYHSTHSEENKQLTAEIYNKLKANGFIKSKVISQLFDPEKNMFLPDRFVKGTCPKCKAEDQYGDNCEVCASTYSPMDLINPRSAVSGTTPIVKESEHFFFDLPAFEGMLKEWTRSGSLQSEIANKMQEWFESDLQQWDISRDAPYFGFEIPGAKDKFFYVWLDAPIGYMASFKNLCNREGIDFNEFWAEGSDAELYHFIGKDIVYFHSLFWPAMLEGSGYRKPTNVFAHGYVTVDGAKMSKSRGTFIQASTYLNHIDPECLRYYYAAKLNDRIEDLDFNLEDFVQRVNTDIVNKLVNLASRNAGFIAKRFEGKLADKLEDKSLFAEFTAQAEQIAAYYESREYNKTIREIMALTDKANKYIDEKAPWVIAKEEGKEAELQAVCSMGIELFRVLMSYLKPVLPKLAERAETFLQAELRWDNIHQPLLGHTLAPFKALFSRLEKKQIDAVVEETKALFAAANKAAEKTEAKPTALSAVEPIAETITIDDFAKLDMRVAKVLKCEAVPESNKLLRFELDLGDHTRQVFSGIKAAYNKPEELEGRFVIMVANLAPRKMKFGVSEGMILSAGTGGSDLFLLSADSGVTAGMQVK

Row | SMILES | MIC [1] | IC50 [2] | MIC (S. aureus) | MIC (S. pneumo) | MIC [3] | MIC (H. influenzae)
1 | Cc1c(CNCCCNc2nc3cscc3[nH]2)sc(Br)c1Br [Example 18, N-(4,5-Dibromo-3-methylthiophen-2-ylmethyl)-N′-(1H-thieno[3,4-d]imidazol-2-yl)propane-1,3-diamine] | 0.13 to 8 µg/mL (≈ 0.28 to 17.2 µM) | ≤ 200 nM | 0.13 µg/mL (≈ 0.28 µM) | 0.25 µg/mL (≈ 0.539 µM) | 0.06 to 0.5 µg/mL (≈ 0.129 to 1.08 µM) | 8 µg/mL (≈ 17.2 µM)
2 | Cc1c(CNCCCNc2nc(=O)c3sccc3[nH]2)sc(Br)c1Br [Example 25, N-(4,5-Dibromo-3-methylthiophen-2-ylmethyl)-N′-(1H-thieno [3,2-d]pyrimidin-4-one)propane-1,3-diamine] |  | ≤ 200 nM | 0.5 µg/mL (≈ 1.02 µM) | 2 µg/mL (≈ 4.06 µM) | 0.06 to 0.5 µg/mL (≈ 0.122 to 1.02 µM) | 32 µg/mL (≈ 65 µM)
3 | C=C(F)c1sc(CNCCCNc2nc3ncccc3[nH]2)c(C)c1Br [Example 17, N-(4-bromo-5-(1-fluorovinyl)-3-methylthiophen-2-ylmethyl)-N′-(1H-imidazo[4,5-b]pyridin-2-yl)-propane-1,3-diamine] |  | ≤ 200 nM | 0.06 µg/mL (≈ 0.141 µM) | 0.25 µg/mL (≈ 0.589 µM) | 0.06 to 0.5 µg/mL (≈ 0.141 to 1.18 µM) | 64 µg/mL (≈ 151 µM)
4 | C=C(F)c1sc(CNCCCNc2nc3cscc3[nH]2)c(C)c1Br [Example 21, N-(4-bromo-5-(1-fluorovinyl)-3-methylthiophen-2-ylmethyl)-N′-(1H-thieno[3,4-d]imidazol-2-yl)propane-1,3-diamine] | 0.13 to 8 µg/mL (≈ 0.303 to 18.6 µM) | ≤ 200 nM | 0.06 µg/mL (≈ 0.14 µM) | 0.25 µg/mL (≈ 0.582 µM) | 0.06 to 0.5 µg/mL (≈ 0.14 to 1.16 µM) | 8 µg/mL (≈ 18.6 µM)
5 | C=C(F)c1sc(CNCCCNc2nc3ccccc3[nH]2)c(C)c1Br [Example 22, N-(4-bromo-5-(1-fluorovinyl)-3-methylthiophen-2-ylmethyl)-N′-(1H-benzimidazole)propane-1,3-diamine] |  | ≤ 200 nM | 0.13 µg/mL (≈ 0.307 µM) | 0.5 µg/mL (≈ 1.18 µM) | 0.06 to 0.5 µg/mL (≈ 0.142 to 1.18 µM) | 16 µg/mL (≈ 37.8 µM)
6 | C=Cc1sc(CNCCCNc2nc3nnccc3[nH]2)c(C)c1Br [Example 13, N-(4-bromo-3-methyl-5-vinylthiophen-2-ylmethyl)-N′-(5H-imidazo[4,5-c]pyridazin-6-yl)propane-1,3-diamine dihydrochloride] | 0.13 to 8 µg/mL |  | 0.5 µg/mL | 2 µg/mL | 0.06 to 0.5 µg/mL | 2 µg/mL

From US7030137B2, “Substituted thiophenes with antibacterial activity” (Replidyne, Inc., priority 2003, dated 2006)
